Tests used:
weeds = test: Weed control by the pest control sheet in a watermelon crop; assay type: in vivo
From the text: (§1) The present invention further provides a method for pest control. Said method may be applied in agriculture, horticulture or in garden maintenance. In agriculture and horticulture said method is applied as follows: subsequent to physically preparing the field and soil for planting, e.g. plowing, fumigating the soil and laying down of an irrigation system, the sheet is spread over the field so as to cover the soil [FIG. II, (1)], and is then secured to the ground. The sheet [FIG. II, (2), (3)] is then punctured at the spot where a seedling is intended to be planted so that a seedling [FIG. II, (4)] may be inserted through the hole [FIG. II, (5)] and planted in the soil. […] When the sheet contains a pesticide in the top layer, then pest control is maintained above the soil, in the area of the plant. This may also help in protecting the fruit/vegetable itself. Said method can be applied in gardens in a similar manner as described above. The sheet and method of the present invention have been applied to a watermelon crop. The experiments were conducted with three different concentrations of herbicide in the bottom layer.

watermelon crop = test: Watermelon crop development under the pest control sheet; assay type: in vivo
From the text: as §1

[1] = 0.5 weight % of pesticide in bottom layer of sheet
[2] = 1 weight % of pesticide in bottom layer of sheet
[3] = 2 weight % of pesticide in bottom layer of sheet

CCOc1cc(Oc2ccc(C(F)(F)F)cc2Cl)ccc1[N+](=O)[O-] [Oxyfluorfen, 2-chloro-a,a,a-trifluoro-p-tolyl 3-ethoxy-4-nitrophenyl ether]
100%: Weed control (% of weed control on a scale of 0-100, 100 indicating total prevention of weed emergence) (weeds; [1]) | Weed control (% of weed control on a scale of 0-100, 100 indicating total prevention of weed emergence) (weeds; [2]) | Weed control (% of weed control on a scale of 0-100, 100 indicating total prevention of weed emergence) (weeds; [3]) | Development (% of crop development in comparison to healthy crop on a scale of 0-100, 100 indicating a healthy crop) (watermelon crop; [1]) | Development (% of crop development in comparison to healthy crop on a scale of 0-100, 100 indicating a healthy crop) (watermelon crop; [2]) | Development (% of crop development in comparison to healthy crop on a scale of 0-100, 100 indicating a healthy crop) (watermelon crop; [3])

Source: patent US20080312086A1, “PEST CONTROL SHEET” (MAKHTESHIM CHEMICAL WORKS LTD., priority 2000, published 2008)
